Legend:
[1] = target: T1, 5-hydroxytryptamine receptor 2C (Homo sapiens) (UniProt P28335); assay: Displacement of [3H]mesulergine from human 5-HT2CR expressed in Flp-In HEK cell membranes at 10 uM incubated for 90 mins under dark condition by microbeta scintillation counting method relative to control; conditions: HEK293
T1 sequence (whole entry): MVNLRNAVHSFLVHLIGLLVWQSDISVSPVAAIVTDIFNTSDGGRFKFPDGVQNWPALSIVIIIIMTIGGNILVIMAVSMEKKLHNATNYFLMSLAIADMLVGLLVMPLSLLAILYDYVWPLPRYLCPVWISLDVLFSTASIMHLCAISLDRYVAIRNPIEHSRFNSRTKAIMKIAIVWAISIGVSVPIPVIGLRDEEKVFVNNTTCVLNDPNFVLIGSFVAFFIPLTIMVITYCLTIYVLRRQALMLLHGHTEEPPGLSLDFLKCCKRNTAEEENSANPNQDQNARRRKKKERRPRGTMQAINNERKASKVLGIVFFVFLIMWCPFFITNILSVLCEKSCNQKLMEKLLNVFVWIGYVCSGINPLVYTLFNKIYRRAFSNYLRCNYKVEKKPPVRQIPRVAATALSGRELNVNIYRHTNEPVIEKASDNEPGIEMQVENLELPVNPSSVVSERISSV

[2] = target: T2, 5-hydroxytryptamine receptor 2A (Homo sapiens, UniProt P28223); assay: Displacement of [3H]ketanserin from human 5-HT2A receptor expressed in HEK-T cell membranes at 10 uM incubated for 90 mins under dark condition by microbeta scintillation counting method relative to control
[3] = target: T3, 5-hydroxytryptamine receptor 2B (Homo sapiens, UniProt P41595); conditions: HEK293, at 10 µM
[4] = target: T2, 5-hydroxytryptamine receptor 2A; assay: Displacement of [3H]ketanserin from human 5-HT2A receptor expressed in HEK-T cell membranes incubated for 90 mins under dark condition by microbeta scintillation counting method
[5] = target: 5-hydroxytryptamine receptor 4 (Homo sapiens) (UniProt Q13639); assay: Displacement of [3H]GR113808 from human 5-HT4 receptor at 10 uM incubated for 90 mins under dark condition by microbeta scintillation counting method relative to control
[6] = target: 5-hydroxytryptamine receptor 5A (Homo sapiens) (UniProt P47898); assay: Displacement of [3H]LSD from human 5-HT5A receptor expressed in Flp-In-CHO cell membranes incubated for 90 mins under dark condition by microbeta scintillation counting method relative to control; parameters: concentration or dose not given beside the values
[7] = target: 5-hydroxytryptamine receptor 7 (Homo sapiens) (UniProt P34969); assay: Displacement of [3H]LSD from human 5-HT7A receptor expressed in HEK cell membranes at 10 uM incubated for 90 mins under dark condition by microbeta scintillation counting method relative to control; conditions: HEK293
[8] = target: T4, 5-hydroxytryptamine receptor 3A (Homo sapiens) (UniProt P46098); assay: Displacement of [3H]GR65630 from human 5-HT3 receptor expressed in HEK-T cell membranes at 10 uM incubated for 90 mins under dark condition by microbeta scintillation counting method relative to control
T4 sequence (whole entry): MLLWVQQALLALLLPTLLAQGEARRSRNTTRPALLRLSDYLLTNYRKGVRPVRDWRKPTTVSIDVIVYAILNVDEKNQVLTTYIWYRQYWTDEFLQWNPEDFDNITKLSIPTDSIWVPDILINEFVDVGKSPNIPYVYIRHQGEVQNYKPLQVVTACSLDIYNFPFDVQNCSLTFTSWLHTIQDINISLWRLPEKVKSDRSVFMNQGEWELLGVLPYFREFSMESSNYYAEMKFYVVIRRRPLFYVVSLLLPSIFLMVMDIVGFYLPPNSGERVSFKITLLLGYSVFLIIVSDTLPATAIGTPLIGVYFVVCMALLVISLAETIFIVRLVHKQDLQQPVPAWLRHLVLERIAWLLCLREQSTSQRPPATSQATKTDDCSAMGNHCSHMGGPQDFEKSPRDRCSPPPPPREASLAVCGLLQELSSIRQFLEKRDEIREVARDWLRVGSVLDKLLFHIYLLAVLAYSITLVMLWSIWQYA

[9] = target: 5-hydroxytryptamine receptor 1E (Homo sapiens) (UniProt P28566); assay: Displacement of [3H]5-HT from human 5-HT1E receptor expressed in HEK cell membranes at 10 uM incubated for 90 mins under dark condition by microbeta scintillation counting method relative to control; conditions: HEK293
[10] = target: 5-hydroxytryptamine receptor 6 (Homo sapiens) (UniProt P50406); assay: Displacement of [3H]LSD from human 5-HT6 receptor expressed in HEK cell membranes at 10 uM incubated for 90 mins under dark condition by microbeta scintillation counting method relative to control; conditions: HEK293
[11] = target: T5, 5-hydroxytryptamine receptor 1A (Homo sapiens) (UniProt P08908); assay: Displacement of [3H]WAY100635 from human 5-HT1AR expressed in CHO cell membranes at 10 uM incubated for 90 mins under dark condition by microbeta scintillation counting method relative to control
T5 sequence (whole entry): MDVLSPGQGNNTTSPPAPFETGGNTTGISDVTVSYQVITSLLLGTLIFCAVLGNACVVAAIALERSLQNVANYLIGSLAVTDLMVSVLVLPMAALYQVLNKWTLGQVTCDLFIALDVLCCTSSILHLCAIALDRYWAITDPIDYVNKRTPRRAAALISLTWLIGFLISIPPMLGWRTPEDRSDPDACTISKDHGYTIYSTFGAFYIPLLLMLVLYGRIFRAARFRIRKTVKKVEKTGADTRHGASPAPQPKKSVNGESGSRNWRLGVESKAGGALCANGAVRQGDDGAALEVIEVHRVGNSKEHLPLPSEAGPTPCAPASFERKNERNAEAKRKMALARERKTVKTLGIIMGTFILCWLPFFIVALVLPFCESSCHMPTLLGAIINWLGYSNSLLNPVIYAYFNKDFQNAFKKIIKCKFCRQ

[12] = target: 5-hydroxytryptamine receptor 1D (Homo sapiens) (UniProt P28221); assay: Displacement of [3H]5-CT from human 5-HT1D receptor expressed in HEK-T cell membranes at 10 uM incubated for 90 mins under dark condition by microbeta scintillation counting method relative to control
[13] = target: 5-hydroxytryptamine receptor 1B (Homo sapiens) (UniProt P28222); assay: Displacement of [3H]5-CT from human 5-HT1BR expressed in HEK cell membranes at 10 uM incubated for 90 mins under dark condition by microbeta scintillation counting method relative to control; conditions: HEK293
[14] = target: T3, 5-hydroxytryptamine receptor 2B; assay: biochemical; assay type: cell-based, HEK293
[15] = target: T6, 5-hydroxytryptamine receptor 2C (Homo sapiens, UniProt P28335); assay: Displacement of [3H]mesulergine from human 5-HT2CR expressed in Flp-In HEK cell membranes incubated for 90 mins under dark condition by microbeta scintillation counting method; parameters: species or system HEK293
T6 sequence (P28335 whole entry): T1 sequence (whole entry)

Adenosine receptor A2a = Adenosine receptor A2a (Homo sapiens, UniProt P29274); assay: Displacement of [3 H]2-[p-(2-carboxyethyl)phenyl-ethylamino]-5'-N-ethylcarboxamidoadenosine from recombinant human adenosine receptor A2A expressed in HEK293 cell membranes at 10 uM after 60 mins by liquid scintillation counting method relative to control
Adenosine receptor A3 = target: T7, Adenosine receptor A3 (Homo sapiens, UniProt P0DMS8); assay: Displacement of [125l]N 6-(4-amino-3-iodobenzyl)adenosine-5'-N-methyluronamide from recombinant human A3AR expressed in CHO cell membranes after 60 mins by gamma counting method
T7 sequence (P0DMS8 whole entry): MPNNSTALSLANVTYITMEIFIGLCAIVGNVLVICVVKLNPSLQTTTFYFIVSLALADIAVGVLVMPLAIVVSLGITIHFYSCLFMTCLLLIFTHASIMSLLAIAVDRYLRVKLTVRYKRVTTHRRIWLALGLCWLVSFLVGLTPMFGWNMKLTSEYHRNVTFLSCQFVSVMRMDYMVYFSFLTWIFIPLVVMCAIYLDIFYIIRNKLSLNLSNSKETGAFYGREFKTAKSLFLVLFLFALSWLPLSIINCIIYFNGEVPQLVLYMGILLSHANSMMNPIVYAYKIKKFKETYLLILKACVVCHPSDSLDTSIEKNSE

Adenosine receptor A1 = target: T8, Adenosine receptor A1 (Homo sapiens, UniProt P30542); assay: Displacement of [3H]N6-phenylisopropyladenosine from recombinant human A1AR expressed in CHO cell membranes after 60 mins by liquid scintillation counting method
T8 sequence (P30542 whole entry): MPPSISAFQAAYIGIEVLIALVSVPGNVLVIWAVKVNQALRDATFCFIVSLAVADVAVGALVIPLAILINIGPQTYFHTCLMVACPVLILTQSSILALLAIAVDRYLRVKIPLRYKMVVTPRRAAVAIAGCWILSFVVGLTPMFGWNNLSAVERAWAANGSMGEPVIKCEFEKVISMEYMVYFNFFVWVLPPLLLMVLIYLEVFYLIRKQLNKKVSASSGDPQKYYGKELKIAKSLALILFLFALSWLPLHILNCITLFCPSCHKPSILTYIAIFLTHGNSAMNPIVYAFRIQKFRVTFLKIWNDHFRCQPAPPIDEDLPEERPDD

Sequence of 5-hydroxytryptamine receptor 5A (Homo sapiens) (P47898 whole entry): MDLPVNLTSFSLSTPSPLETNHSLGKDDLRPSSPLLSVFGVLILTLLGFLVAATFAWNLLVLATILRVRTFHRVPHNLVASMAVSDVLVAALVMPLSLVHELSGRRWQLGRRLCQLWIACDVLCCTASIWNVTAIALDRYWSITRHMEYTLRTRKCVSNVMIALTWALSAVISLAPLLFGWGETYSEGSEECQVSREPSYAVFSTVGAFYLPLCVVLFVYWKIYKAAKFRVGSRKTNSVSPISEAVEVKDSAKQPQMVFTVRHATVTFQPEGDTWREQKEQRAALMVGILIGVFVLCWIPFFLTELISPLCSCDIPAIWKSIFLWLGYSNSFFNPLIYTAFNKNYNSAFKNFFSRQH
Sequence of 5-hydroxytryptamine receptor 4 (Homo sapiens) (Q13639 whole entry): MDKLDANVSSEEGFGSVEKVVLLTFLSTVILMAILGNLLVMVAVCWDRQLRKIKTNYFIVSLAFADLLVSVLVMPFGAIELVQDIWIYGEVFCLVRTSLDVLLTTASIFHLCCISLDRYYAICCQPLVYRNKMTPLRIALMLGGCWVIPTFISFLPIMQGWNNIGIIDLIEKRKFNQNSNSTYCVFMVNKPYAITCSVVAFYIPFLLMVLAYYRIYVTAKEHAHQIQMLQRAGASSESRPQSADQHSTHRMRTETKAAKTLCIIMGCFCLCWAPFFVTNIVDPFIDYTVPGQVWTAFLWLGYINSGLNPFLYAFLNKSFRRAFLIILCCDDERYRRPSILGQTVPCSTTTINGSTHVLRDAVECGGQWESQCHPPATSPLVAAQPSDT
T2 sequence (P28223 whole entry): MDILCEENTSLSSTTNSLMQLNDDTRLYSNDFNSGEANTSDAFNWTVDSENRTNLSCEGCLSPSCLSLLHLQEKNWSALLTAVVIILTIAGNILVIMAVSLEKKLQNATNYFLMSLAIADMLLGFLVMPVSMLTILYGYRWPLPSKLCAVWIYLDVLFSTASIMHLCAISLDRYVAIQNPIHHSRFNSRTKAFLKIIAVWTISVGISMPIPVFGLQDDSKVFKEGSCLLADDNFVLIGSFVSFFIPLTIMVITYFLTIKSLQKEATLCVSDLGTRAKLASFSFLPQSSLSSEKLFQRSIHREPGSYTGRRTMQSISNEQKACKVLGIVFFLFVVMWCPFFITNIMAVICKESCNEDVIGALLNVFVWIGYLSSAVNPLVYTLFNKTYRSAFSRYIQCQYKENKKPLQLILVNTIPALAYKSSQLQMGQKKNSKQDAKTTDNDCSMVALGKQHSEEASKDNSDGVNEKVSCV
Sequence of 5-hydroxytryptamine receptor 1B (Homo sapiens) (P28222 whole entry): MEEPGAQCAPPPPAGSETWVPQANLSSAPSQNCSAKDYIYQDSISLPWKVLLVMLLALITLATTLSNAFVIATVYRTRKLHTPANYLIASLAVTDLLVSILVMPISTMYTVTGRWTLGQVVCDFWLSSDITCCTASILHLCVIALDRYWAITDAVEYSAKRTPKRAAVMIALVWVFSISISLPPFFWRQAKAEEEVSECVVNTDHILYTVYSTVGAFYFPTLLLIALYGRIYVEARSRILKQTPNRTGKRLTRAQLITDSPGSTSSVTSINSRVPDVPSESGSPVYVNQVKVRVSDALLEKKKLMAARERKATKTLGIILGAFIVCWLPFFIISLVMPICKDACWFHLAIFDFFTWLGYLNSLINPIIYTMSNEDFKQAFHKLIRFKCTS
Sequence of 5-hydroxytryptamine receptor 6 (Homo sapiens) (P50406 whole entry): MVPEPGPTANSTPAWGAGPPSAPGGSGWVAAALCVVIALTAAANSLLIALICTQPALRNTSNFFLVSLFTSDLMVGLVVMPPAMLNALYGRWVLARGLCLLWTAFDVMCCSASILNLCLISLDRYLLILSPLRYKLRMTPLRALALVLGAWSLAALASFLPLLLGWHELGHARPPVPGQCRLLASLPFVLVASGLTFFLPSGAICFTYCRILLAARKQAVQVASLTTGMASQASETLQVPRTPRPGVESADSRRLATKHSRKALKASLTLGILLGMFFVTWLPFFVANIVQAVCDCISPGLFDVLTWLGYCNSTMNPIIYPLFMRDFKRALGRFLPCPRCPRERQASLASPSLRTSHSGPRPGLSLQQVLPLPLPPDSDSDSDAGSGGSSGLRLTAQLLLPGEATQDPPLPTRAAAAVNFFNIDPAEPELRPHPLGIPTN
Sequence of 5-hydroxytryptamine receptor 1E (Homo sapiens) (P28566 whole entry): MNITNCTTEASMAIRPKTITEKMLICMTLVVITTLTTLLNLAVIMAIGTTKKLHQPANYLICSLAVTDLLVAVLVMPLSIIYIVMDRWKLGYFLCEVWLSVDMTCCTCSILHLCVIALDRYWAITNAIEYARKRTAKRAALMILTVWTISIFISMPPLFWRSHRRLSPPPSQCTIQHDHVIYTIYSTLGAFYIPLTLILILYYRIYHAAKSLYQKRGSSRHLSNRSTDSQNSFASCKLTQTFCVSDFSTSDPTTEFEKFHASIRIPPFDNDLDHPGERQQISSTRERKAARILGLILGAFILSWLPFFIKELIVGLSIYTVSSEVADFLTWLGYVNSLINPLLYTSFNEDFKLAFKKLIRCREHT
T3 sequence (P41595 whole entry): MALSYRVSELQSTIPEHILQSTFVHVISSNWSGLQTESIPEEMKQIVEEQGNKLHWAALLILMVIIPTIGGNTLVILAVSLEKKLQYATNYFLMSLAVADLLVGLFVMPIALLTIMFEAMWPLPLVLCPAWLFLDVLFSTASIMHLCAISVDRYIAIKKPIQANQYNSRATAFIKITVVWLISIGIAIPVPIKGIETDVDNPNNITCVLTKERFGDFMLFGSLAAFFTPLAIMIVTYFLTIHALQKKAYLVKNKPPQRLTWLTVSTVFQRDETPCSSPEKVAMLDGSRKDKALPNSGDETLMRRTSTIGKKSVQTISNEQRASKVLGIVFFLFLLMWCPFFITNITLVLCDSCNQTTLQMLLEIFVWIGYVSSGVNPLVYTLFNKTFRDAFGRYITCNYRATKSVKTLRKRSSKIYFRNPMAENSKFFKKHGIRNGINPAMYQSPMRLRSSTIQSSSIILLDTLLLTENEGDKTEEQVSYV
Sequence of 5-hydroxytryptamine receptor 1D (Homo sapiens) (P28221 whole entry): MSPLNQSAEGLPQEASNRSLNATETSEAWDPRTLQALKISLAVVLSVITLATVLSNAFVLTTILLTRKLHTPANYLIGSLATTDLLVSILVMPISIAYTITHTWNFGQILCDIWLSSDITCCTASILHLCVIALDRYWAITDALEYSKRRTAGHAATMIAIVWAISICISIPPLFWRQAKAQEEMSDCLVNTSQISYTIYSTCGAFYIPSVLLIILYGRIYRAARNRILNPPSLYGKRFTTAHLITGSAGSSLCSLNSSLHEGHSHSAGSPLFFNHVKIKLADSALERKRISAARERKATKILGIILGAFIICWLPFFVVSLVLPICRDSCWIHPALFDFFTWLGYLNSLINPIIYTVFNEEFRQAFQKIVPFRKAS
Sequence of 5-hydroxytryptamine receptor 7 (Homo sapiens) (P34969 whole entry): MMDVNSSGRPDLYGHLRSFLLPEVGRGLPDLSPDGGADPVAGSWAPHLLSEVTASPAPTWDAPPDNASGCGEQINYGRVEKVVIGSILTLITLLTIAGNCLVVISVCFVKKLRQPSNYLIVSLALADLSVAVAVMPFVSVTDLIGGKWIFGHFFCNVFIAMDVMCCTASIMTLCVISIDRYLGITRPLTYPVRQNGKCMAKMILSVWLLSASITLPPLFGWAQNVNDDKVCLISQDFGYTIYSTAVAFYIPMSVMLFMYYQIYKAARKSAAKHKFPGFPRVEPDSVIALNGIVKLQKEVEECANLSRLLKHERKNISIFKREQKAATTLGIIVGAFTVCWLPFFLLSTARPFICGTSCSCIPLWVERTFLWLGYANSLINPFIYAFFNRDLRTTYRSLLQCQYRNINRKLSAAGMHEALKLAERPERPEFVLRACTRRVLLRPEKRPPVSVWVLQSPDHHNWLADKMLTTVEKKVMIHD
Sequence of Adenosine receptor A2a (P29274 whole entry): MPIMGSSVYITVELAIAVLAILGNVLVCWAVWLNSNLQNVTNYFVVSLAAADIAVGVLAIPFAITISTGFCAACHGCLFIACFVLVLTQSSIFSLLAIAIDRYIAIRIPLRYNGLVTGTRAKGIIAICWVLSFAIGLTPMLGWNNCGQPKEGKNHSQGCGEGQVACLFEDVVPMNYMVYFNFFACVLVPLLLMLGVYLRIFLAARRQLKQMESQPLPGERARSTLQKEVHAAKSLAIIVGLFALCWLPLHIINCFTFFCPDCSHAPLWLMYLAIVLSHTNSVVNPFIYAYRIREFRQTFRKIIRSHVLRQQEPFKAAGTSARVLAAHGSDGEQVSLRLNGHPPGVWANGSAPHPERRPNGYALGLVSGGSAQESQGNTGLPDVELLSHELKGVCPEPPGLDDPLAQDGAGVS

inhibition [1]	inhibition [3]	Ki [14]	inhibition (Adenosine receptor A2a)	SMILES	inhibition [2]	Ki [4]	inhibition [5]	inhibition [6]	inhibition [7]	inhibition [8]	inhibition [9]	inhibition [10]	inhibition [11]	inhibition [12]	inhibition [13]	Ki [15]	Ki (Adenosine receptor A3)	Ki (Adenosine receptor A1)
11%	38%	–	–	OC[C@H]1O[C@@H](n2cnc3c(NC(C4CC4)C4CC4)ncnc32)[C@H](O)[C@@H]1O	< 10%	> 10000 nM	< 50%	< 50%	< 50%	< 50%	< 50%	< 50%	< 50%	< 50%	< 50%	–	–	–
> 50%	–	–	< 10%	O=C(O)[C@@]12C[C@@H]1[C@@H](n1cnc3c(NC(C4CC4)C4CC4)nc(Cl)nc31)[C@H](O)[C@@H]2O	< 10%	> 10000 nM	< 50%	< 50%	< 50%	< 50%	< 50%	< 50%	< 50%	< 50%	< 50%	2580 nM	5980 nM	–
< 10%	< 10%	–	–	CNC(=O)[C@H]1O[C@@H](n2cnc3c(N)ncnc32)[C@H](O)[C@@H]1O	< 10%	> 10000 nM	< 50%	< 50%	< 50%	< 50%	< 50%	< 50%	< 50%	< 50%	< 50%	–	–	–
< 10%	> 50%	> 10000 nM	–	Nc1nc(Cl)nc2c1ncn2[C@H]1[C@H](O)[C@H](O)[C@]2(CO)C[C@H]12	< 10%	> 10000 nM	< 50%	< 50%	< 50%	< 50%	< 50%	< 50%	< 50%	< 50%	< 50%	–	–	–
> 50%	–	2770 nM	–	CNC(=O)[C@H]1O[C@@H](n2cnc3c(NCc4cccc(I)c4)nc(Cl)nc32)[C@H](O)[C@@H]1O [NAMODENOSON]	30%	> 10000 nM	–	–	–	–	–	–	–	–	–	10000 nM	–	–

The next lines start with the compound.

SMILES	inhibition [1]	inhibition [3]	Ki [14]	inhibition (Adenosine receptor A2a)	inhibition [2]	Ki [4]	inhibition [5]	inhibition [6]	inhibition [7]	inhibition [8]	inhibition [9]	inhibition [10]	inhibition [11]	inhibition [12]	inhibition [13]	Ki [15]	Ki (Adenosine receptor A3)	Ki (Adenosine receptor A1)
O[C@@H]1[C@H](O)[C@@H]2C[C@@H]2[C@H]1n1cnc2c(NC(C3CC3)C3CC3)nc(Cl)nc21	–	–	675 nM	–	< 10%	> 10000 nM	–	–	–	–	–	–	–	–	–	–	–	–
CNC(=O)[C@H]1O[C@@H](n2cnc3c(NCc4cccc(I)c4)ncnc32)[C@H](O)[C@@H]1O [IB-MECA]	> 50%	> 50%	–	–	< 10%	> 10000 nM	< 50%	< 50%	< 50%	< 50%	< 50%	< 50%	< 50%	< 50%	< 50%	–	–	–
CC(C)[C@H](Nc1nc(Cl)nc2c1ncn2[C@H]1[C@H](O)[C@H](O)[C@]2(CO)C[C@H]12)C1CC1	> 50%	–	–	–	< 10%	> 10000 nM	< 50%	< 50%	< 50%	< 50%	< 50%	< 50%	< 50%	< 50%	< 50%	672 nM	3450 nM	104 nM
Nc1nc(Cl)nc2c1ncn2[C@@H]1O[C@H](CO)[C@@H](O)[C@H]1O	< 10%	< 10%	–	–	46%	> 10000 nM	< 50%	< 50%	< 50%	< 50%	< 50%	< 50%	< 50%	< 50%	< 50%	–	–	2.8 nM
CC(C)[C@@H](Nc1nc(Cl)nc2c1ncn2[C@H]1[C@H](O)[C@H](O)[C@]2(CO)C[C@H]12)C1CC1	> 50%	–	–	–	< 10%	> 10000 nM	< 50%	< 50%	< 50%	< 50%	< 50%	< 50%	< 50%	< 50%	< 50%	190 nM	1240 nM	103 nM

Source: ChEMBL document CHEMBL3862033 (J Med Chem, 2016)
